Assays:
[1] = tested on: brain perivascular macrophages; assay: 2-NBDG glucose uptake in brain perivascular macrophages of ALS transgenic animals; format: in vivo, mice; conditions: 25 mg/kg orally 3 times a week for 8 weeks, 13 weeks of age
Method: ALS transgenic animals were orally treated 3 times a week for 8 weeks with 0.5% methylcellulose or ZLN005 (Sigma) at 25 mg/kg in 0.5% methylcellulose, starting at 5 weeks of age. For measuring brain perivascular macrophages, ALS-Ctrl (n=8), ALS-ZLN (n=8), and WT animal (n=12) were sacrificed at 13 weeks of age. PBS-perfused brain tissues of sacrificed animals were digested with Collagenase IV and processed for flow cytometry. Brain perivascular macrophages were stained with 2-NBDG, the fluorescent glucose analog, to measure glucose uptake for flow cytometric acquisition (LSRII, BD) and analysis (FlowJo). The results are summarized in FIG. 20; Y-axis represents % of brain perivascular macrophages that have taken up the glucose analog, 2-NBDG. […] ANOVA was used for statistical analysis.

ALS transgenic mice = assay: Wheel-running test in ALS transgenic animals; format: in vivo; conditions: 25 mg/kg orally 3 times a week for 4 weeks from 9 weeks of age
Method: ALS transgenic mice were orally treated 3 times a week for 4 weeks with 0.5% methylcellulose or ZLN005 (Sigma) at 25 mg/kg in 0.5% methylcellulose, starting at 9 weeks of age. A wheel-running test was performed similarly to that described in Example 8. The animals started training at 13 weeks of age for 1.5 weeks of training on a treadmill at a constant speed of 10 rpm and then for 1.5 weeks of training at an accelerating speed from 5-15 rpm. After the training period at 14.5 and 16 weeks of age, animals were tested for motor performance at a constant speed and at an accelerating speed, respectively. […] Unpaired t-tests were used for statistical analyses.

[2] = tested on: Ppargc1a pathway in the brain
Method: (§1) To induce symptoms of PD, MPTP (20 mg/kg) was administered intraperitoneally in sterile PBS 4 times at 2-hour intervals on day 1. […] Log-rank test was used for statistical analysis.
(§2) Ppargc1a, an inducer of mitochondrial biogenesis, is widely expressed in cells throughout the body.
For gene expression studies, animals were sacrificed on Day 4, 24 hours after the 3rd oral dosage of ZLN005, and PBS-perfused brain tissues were processed for RNA isolation, cDNA synthesis, and real-time quantitative PCR (Invitrogen). […] Unpaired t-tests were used for statistical analyses.

[3] = tested on: dopaminergic neurons in the substantia nigra; assay: Immunohistochemical analysis of dopaminergic neurons in MPTP-treated animals; format: in vivo, mice; conditions: 25 mg/kg orally once a day for 7 days, Day 8
Method: For protein expression studies, animals were sacrificed on Day 8, 24 hours after the 7th oral dosage of ZLN005, and paraformaldehyde-perfused brain tissues were processed for immunohistochemical analysis of dopaminergic neurons in the substantia nigra. The brown staining represents tyrosine hydroxylase expression in dopaminergic neurons of the substantia nigra.

[4] = tested on: CD115+CD11b+ blood monocytes; assay: Blood monocyte frequency in 5XFAD AD transgenic animals; format: in vivo, mice; conditions: 25 mg/kg orally 3 times a week for 4 weeks, 7 weeks of age
Method: AD transgenic animals were orally treated 3 times a week for 4 weeks with 0.5% methylcellulose or ZLN005 (Sigma) at 25 mg/kg in 0.5% methylcellulose, starting at 3 weeks of age. For measuring the frequency of CD115+CD11b+ blood monocytes, 5[…]=5), 5XFAD-Ctrl (n=4), and WT animals (n=4) were sacrificed at 7 weeks of age. The results are summarized in FIG. 14; Y-axis represents % of total circulating monocytes among circulating immune cells. […] ANOVA was used for statistical analysis.

Ppargc1a = tested on: Ppargc1a
Method: as §1, §2
For protein expression studies, animals were sacrificed on Day 4, 24 hours after the 3rd oral dosage of ZLN005 and PBS-perfused brain tissues were digested with Collagenase IV, processed for microglia isolation by flow cytometry (Ginhoux et al Science, 330:841-5, 2010), and immunoblot analysis of Ppargc1a expression.

[5] = tested on: brain perivascular macrophages; assay: Brain perivascular macrophage iNOS, IL6, TNFα in ALS transgenic animals; format: in vivo, mice; conditions: 25 mg/kg orally 3 times a week for 8 weeks, 13 weeks of age
Method: ALS transgenic animals were purchased from Jackson Laboratories. These animals express the G93A mutation in the gene SOD1 which has been implicated as the cause of the disease in a subset of human subjects with familial ALS. […] These animals represent a gold standard model for therapeutic discovery in the field of ALS research. ALS transgenic animals were orally treated 3 times a week for 8 weeks with 0.5% methylcellulose or ZLN005 (Sigma) at 25 mg/kg in 0.5% methylcellulose, starting at 5 weeks of age. For study of brain perivascular macrophages, ALS-Ctrl (n=8), ALS-ZLN (n=12), and WT animals (n=12) were sacrificed at 13 weeks of age. PBS-perfused brain tissues of sacrificed animals were digested with Collagenase IV and processed for flow cytometry. Brain perivascular macrophages were phenotyped with antibodies directed against mouse iNOS, IL6, and TNFα (Biolegend) for flow cytometric acquisition (LSRII, BD) and analysis (FlowJo). The results are summarized in FIG. 16; Y-axis represents % of brain perivascular macrophages that express iNOS (A), IL6 (B) and TNFα (C). […] ANOVA was used for statistical analyses.

microglia = assay: Ex vivo TNF-α production by microglia from MPTP-treated FF and Cre animals; format: in vivo, mice; conditions: 2-hour ex vivo assay, Day 4
Method: Animals with microglia-specific deletion of Ppargc1a were generated by crossing mice harboring the foxed allele of Ppargc1a (Ppargc1a^LoxP/LoxP) with those expressing Tamoxifen inducible Cre recombinase under the control of Cx3cr1 promoter (Cx3cr1^CreER). To induce Cre-mediated deletion of Ppargc1a in Cx3cr1 expressing cells, Tamoxifen (Sigma) in 200 μl corn oil (50 mg/ml, Sigma) was administered to 3 weeks old (Ppargc1a^LoxP/LoxPCx3cr1^CreER) mice twice at 48-hour intervals (Wolf et al Front Cell Neurosci 2013, 18;7:26. doi: 10.3389/fnce1.2013.00026). Littermates carrying the foxed allele of Ppargc1a alleles but lacking expression of Cre recombinase (Ppargc1a^LoxP/LoxP) were used as controls. Animals were rested for another 5-6 weeks before MPTP was administered. Animals with microglia-specific deletion of Ppargc1a and controls were generated as described in Example 1. […] PBS-perfused brain tissues of sacrificed animals were digested with Collagenase IV and isolated by flow cytometry. For measuring microglial production of TNF-α, MPTP-ZLN (n=5), MPTP-Ctrl (n=10) and Veh (n=6) animals were sacrificed. Isolated microglia were subjected to a 2-hour ex vivo TNF-α production assay. Supernatant samples were collected for TNF-α measurement with CBA technology (BD). […] Unpaired t-tests were used for statistical analyses.

CC(C)(C)c1ccc(-c2nc3ccccc3[nH]2)cc1 [ZLN005, 2-(4-tert-butylphenyl)-1H-benzimidazole]
glucose uptake (2-NBDG) in brain perivascular macrophages [1]: decreased
latency to fall (ALS transgenic mice; accelerating speed 5-15 rpm, 16 weeks of age): 243.7 s
latency to fall (ALS transgenic mice; constant speed 10 rpm, 14.5 weeks of age): 296.3 s
expression of genes involved in Ppargc1a signaling (Pgc1a), mitochondrial genes (Tfam, Nrf2, Ucp3) and anti-oxidative stress genes (Ant, Sod1, Sod2) in the brain ([2]; MPTP-treated animals, 25 mg/kg orally once a day for 3 days, Day 4): increases expression of genes
upregulation of tyrosine hydroxylase (Th) ([2]; brain of MPTP-treated animals, 25 mg/kg orally once a day for 3 days, Day 4): 15%
blood-brain barrier penetration ([2]; mouse, in vivo, po, 25 mg/kg): penetrated the blood-brain barrier
depletion of dopaminergic neurons of the substantia nigra (tyrosine hydroxylase staining) [3]: reversed
percentage of monocytes among circulating immune cells [4]: decreased
Ppargc1a protein expression in microglia (Ppargc1a; MPTP-treated animals, 25 mg/kg orally, 3 doses, Day 4): enhanced Ppargc1a protein expression in microglia
blood-brain barrier penetration (Ppargc1a; mouse, in vivo, po, 25 mg/kg): penetrated the blood-brain barrier
IL6 production in brain perivascular macrophages [5]: suppressed, although these differences did not reach statistical significance
TNFα production in brain perivascular macrophages [5]: suppressed, although these differences did not reach statistical significance
iNOS production in brain perivascular macrophages [5]: decreased
TNF-α production in microglia (microglia; MPTP-treated Cre animals (microglial Ppargc1a deletion)): failed to exert its anti-inflammatory effects
TNF-α production in microglia (microglia; MPTP-treated FF animals): suppressed TNF-α production

From US10966962B2, “Method for treating neurodegenerative diseases” (THE BOARD OF TRUSTEES OF THE LELAND STANFORD JUNIOR …, priority 2014, dated 2021)
